Assay results from PMC2820425 (Molecular Biology of the Cell, 2010).
Numbering of substitutions follows the chain as printed. Numbers in names are those of the source.

T1: rat dynamin (Rattus norvegicus, UniProt P21575)
T1 sequence (P21575 1-864): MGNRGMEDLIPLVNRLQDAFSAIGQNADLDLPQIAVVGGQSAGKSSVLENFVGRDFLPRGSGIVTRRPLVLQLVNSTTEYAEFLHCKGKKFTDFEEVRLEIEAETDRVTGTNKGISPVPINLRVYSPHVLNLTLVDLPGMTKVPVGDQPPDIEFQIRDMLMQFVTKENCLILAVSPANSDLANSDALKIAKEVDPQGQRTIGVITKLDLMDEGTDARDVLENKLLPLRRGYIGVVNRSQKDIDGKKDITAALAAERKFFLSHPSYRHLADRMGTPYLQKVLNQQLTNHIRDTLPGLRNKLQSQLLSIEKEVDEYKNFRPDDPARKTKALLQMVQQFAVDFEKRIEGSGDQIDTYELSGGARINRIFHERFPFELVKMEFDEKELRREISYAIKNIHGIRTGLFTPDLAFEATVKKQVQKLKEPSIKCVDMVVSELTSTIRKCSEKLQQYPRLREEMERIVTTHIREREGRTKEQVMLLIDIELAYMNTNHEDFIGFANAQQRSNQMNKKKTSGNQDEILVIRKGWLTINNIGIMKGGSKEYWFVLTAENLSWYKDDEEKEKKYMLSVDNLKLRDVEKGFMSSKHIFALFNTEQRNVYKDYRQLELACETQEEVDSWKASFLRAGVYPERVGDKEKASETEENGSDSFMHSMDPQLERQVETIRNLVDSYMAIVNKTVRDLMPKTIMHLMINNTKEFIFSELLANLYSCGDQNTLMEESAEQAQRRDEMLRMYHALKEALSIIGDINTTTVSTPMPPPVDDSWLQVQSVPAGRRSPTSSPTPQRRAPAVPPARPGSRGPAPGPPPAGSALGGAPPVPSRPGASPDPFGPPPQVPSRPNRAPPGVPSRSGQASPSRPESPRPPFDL

T2: DYN-1 (Caenorhabditis elegans, UniProt P39055)
T2 sequence (P39055 1-830): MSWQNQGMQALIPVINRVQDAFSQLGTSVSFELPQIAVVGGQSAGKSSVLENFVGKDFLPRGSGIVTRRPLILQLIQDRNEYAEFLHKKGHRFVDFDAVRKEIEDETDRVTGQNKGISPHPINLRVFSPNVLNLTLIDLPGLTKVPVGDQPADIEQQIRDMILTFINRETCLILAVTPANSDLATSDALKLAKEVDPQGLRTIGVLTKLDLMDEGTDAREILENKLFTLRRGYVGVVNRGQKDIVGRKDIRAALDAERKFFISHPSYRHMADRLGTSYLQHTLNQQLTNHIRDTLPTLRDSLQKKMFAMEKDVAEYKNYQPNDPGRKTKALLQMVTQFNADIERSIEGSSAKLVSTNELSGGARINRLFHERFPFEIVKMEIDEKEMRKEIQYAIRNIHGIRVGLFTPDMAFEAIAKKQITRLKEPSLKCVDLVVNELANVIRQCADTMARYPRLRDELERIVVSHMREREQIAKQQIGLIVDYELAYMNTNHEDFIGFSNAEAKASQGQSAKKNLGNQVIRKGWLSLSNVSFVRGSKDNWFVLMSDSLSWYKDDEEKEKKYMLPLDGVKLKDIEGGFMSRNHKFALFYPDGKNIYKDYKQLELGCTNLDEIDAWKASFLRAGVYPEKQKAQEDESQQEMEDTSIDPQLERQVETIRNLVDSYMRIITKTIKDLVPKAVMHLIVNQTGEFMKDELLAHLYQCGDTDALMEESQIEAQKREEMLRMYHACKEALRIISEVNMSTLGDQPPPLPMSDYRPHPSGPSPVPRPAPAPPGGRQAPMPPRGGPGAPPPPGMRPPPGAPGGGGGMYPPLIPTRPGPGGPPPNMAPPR

B1: recombinant DYN-1(G40E) purified from SF21 insect cells (natural protein, C. elegans, UniProt P39055 1-830, looked up)
chain: T2 sequence (P39055 1-830) with G40E

Experiments:
rat dynamin = biological target: T1, rat dynamin; test: […] release from [γ-32P]GTP, charcoal assay; type: biochemical; conditions: 1 mM GTP, 150 mM NaCl, with or without lipid; labelled compound
DYN-1 = biological target: T2, DYN-1; test: […] release from [γ-32P]GTP, charcoal assay; type: biochemical; conditions: 1 mM GTP, 150 mM NaCl, with or without lipid; labelled compound
[1] = biological target: the molecule itself; test: cryo-TEM of protein incubated with liposomes

Molecule	32P release from [γ-32P]GTP, charcoal assay (rat dynamin)	32P release from [γ-32P]GTP, charcoal assay (DYN-1)	binding result [1]
Nc1nc2c(ncn2[C@@H]2O[C@H](COP(=O)(O)OP(=O)(O)OP(=O)(O)O)[C@@H](O)[C@H]2O)c(=O)[nH]1 [GTP]	DYN-1 displayed a low basal-level GTP hydrolysis activity as rat dynamin did	C. elegans DYN-1 displayed a low basal-level GTP hydrolysis activity	
B1			binds
